From US20230085307A1, “PYRIDAZINONE COMPOUND AND HERBICIDE” (NISSAN CHEMICAL CORPORATION, priority 2019, published 2023)

Tests used:
[1] = system: late watergrass; experiment: Test Example 1: herbicidal activity, application before weed generation under submerged conditions (Table 16, symbol A); type: in vivo, late watergrass (Echinochloa oryzicola); settings: 320 g/ha applied herbicide
Summary of the method: (§1)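 Submerged Wagner pots (alluvial soil, 4 cm water) sown with weed seeds and planted with 2.5-leaf rice seedlings; emulsifiable concentrate diluted in water applied to water surface on sowing day. Held in greenhouse at 25-30 °C; injury scored 0-5 by herbicidal rate after three weeks.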

[2] = system: Japanese bulrush; experiment: Test Example 1: herbicidal activity, application before weed generation under submerged conditions (Table 16, symbol B); type: in vivo, Japanese bulrush (Schoenoplectus juncoides); settings: 320 g/ha applied herbicide
Summary of the method: as §1

[3] = system: oval-leafed pondweed; experiment: Test Example 1: herbicidal activity, application before weed generation under submerged conditions (Table 16, symbol C); type: in vivo, oval-leafed pondweed (Monochoria vaginalis); settings: 320 g/ha applied herbicide
Summary of the method: as §1

[4] = system: barnyard grass; experiment: Test Example 3: herbicidal effect by foliage application, Wagner pot (Table 18, symbol H); type: in vivo, barnyard grass (Echinochloa crus-galli); settings: amount of applied herbicide 320 g/ha
Summary of the method: (§2)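 Plants were sown in alluvial soil held under 0.1–0.5 cm standing water and grown 14 days in a greenhouse at 25–30 °C. An emulsifiable formulation, water-diluted to the set dose, was then sprayed onto the foliage, and effects were scored three weeks later using previously defined criteria.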

[5] = system: Chinese sprangletop; experiment: Test Example 3: herbicidal effect by foliage application, Wagner pot (Table 18, symbol D); type: in vivo, chinese sprangletop (Leptochloa chinensis); settings: amount of applied herbicide 320 g/ha
Summary of the method: as §2

[6] = system: rice flat sedge; experiment: Test Example 3: herbicidal effect by foliage application, Wagner pot (Table 18, symbol E); type: in vivo, rice flat sedge (Cyperus iria); settings: amount of applied herbicide 320 g/ha
Summary of the method: as §2

[7] = system: southern crabgrass; experiment: Test Example 4: herbicidal effect by soil treatment (Table 19, symbol F); type: in vivo, southern crabgrass (Digitaria ciliaris); settings: amount of applied herbicide 320 g/ha
Summary of the method: (§3)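 Applied as a water-diluted emulsion, the compound was sprayed onto soil covering newly sown seeds. Evaluation came three weeks after application, in a greenhouse held at 25° C. to 30° C.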

[8] = system: green foxtail; experiment: Test Example 4: herbicidal effect by soil treatment (Table 19, symbol G); type: in vivo, green foxtail (Setaria viridis); settings: amount of applied herbicide 320 g/ha
Summary of the method: as §3

[9] = system: barnyard grass; experiment: Test Example 4: herbicidal effect by soil treatment (Table 19, symbol H); type: in vivo, barnyard grass (Echinochloa crus-galli); settings: amount of applied herbicide 320 g/ha
Summary of the method: as §3

[10] = system: wild oat; experiment: Test Example 4: herbicidal effect by soil treatment (Table 19, symbol I); type: in vivo, wild oat (Avena fatua); settings: amount of applied herbicide 320 g/ha
Summary of the method: as §3

[11] = system: blackgrass; experiment: Test Example 4: herbicidal effect by soil treatment (Table 19, symbol J); type: in vivo, blackgrass (Alopecurus myosuroides); settings: amount of applied herbicide 320 g/ha
Summary of the method: as §3

[12] = system: Italian ryegrass; experiment: Test Example 4: herbicidal effect by soil treatment (Table 19, symbol K); type: in vivo, Italian ryegrass (Lolium multiflorum); settings: amount of applied herbicide 320 g/ha
Summary of the method: as §3

[13] = system: windgrass; experiment: Test Example 4: herbicidal effect by soil treatment (Table 19, symbol L); type: in vivo, windgrass (Apera spica-venti); settings: amount of applied herbicide 320 g/ha
Summary of the method: as §3

[14] = system: velvetleaf; experiment: Test Example 4: herbicidal effect by soil treatment (Table 19, symbol M); type: in vivo, velvetleaf (Abutilon theophrasti); settings: amount of applied herbicide 320 g/ha
Summary of the method: as §3

[15] = system: redroot pigweed; experiment: Test Example 4: herbicidal effect by soil treatment (Table 19, symbol N); type: in vivo, redroot pigweed (Amaranthus retroflexus); settings: amount of applied herbicide 320 g/ha
Summary of the method: as §3

[16] = system: lambsquarters; experiment: Test Example 4: herbicidal effect by soil treatment (Table 19, symbol O); type: in vivo, lambsquarters (Chenopodium album); settings: amount of applied herbicide 320 g/ha
Summary of the method: as §3

[17] = system: chickweed; experiment: Test Example 4: herbicidal effect by soil treatment (Table 19, symbol P); type: in vivo, common chickweed (Stellaria media); settings: amount of applied herbicide 320 g/ha
Summary of the method: as §3

[18] = system: persian speedwell; experiment: Test Example 4: herbicidal effect by soil treatment (Table 19, symbol R); type: in vivo, Persian speedwell (Veronica persica); settings: amount of applied herbicide 320 g/ha
Summary of the method: as §3

[19] = system: southern crabgrass; experiment: Test Example 5: herbicidal effect by foliage application, plastic box (Table 20, symbol F); type: in vivo, southern crabgrass (Digitaria ciliaris); settings: foliage application, evaluated three weeks after application
Summary of the method: (§4)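 Sow seeds spot-wise in sterilized diluvial soil; cover with ~1.5 cm soil. Grow 14 days in greenhouse, 25° C. to 30° C. Spray foliage with emulsion diluted to predetermined amount. Rate effect after 3 weeks.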

[20] = system: green foxtail; experiment: Test Example 5: herbicidal effect by foliage application, plastic box (Table 20, symbol G); type: in vivo, green foxtail (Setaria viridis); settings: foliage application, evaluated three weeks after application
Summary of the method: as §4

[21] = system: barnyard grass; experiment: Test Example 5: herbicidal effect by foliage application, plastic box (Table 20, symbol H); type: in vivo, barnyard grass (Echinochloa crus-galli); settings: foliage application, evaluated three weeks after application
Summary of the method: as §4

[22] = system: wild oat; experiment: Test Example 5: herbicidal effect by foliage application, plastic box (Table 20, symbol I); type: in vivo, wild oat (Avena fatua); settings: foliage application, evaluated three weeks after application
Summary of the method: as §4

[23] = system: blackgrass; experiment: Test Example 5: herbicidal effect by foliage application, plastic box (Table 20, symbol J); type: in vivo, blackgrass (Alopecurus myosuroides); settings: foliage application, evaluated three weeks after application
Summary of the method: as §4

[24] = system: Italian ryegrass; experiment: Test Example 5: herbicidal effect by foliage application, plastic box (Table 20, symbol K); type: in vivo, Italian ryegrass (Lolium multiflorum); settings: foliage application, evaluated three weeks after application
Summary of the method: as §4

[25] = system: windgrass; experiment: Test Example 5: herbicidal effect by foliage application, plastic box (Table 20, symbol L); type: in vivo, windgrass (Apera spica-venti); settings: foliage application, evaluated three weeks after application
Summary of the method: as §4

[26] = system: velvetleaf; experiment: Test Example 5: herbicidal effect by foliage application, plastic box (Table 20, symbol M); type: in vivo, velvetleaf (Abutilon theophrasti); settings: foliage application, evaluated three weeks after application
Summary of the method: as §4

[27] = system: redroot pigweed; experiment: Test Example 5: herbicidal effect by foliage application, plastic box (Table 20, symbol N); type: in vivo, redroot pigweed (Amaranthus retroflexus); settings: foliage application, evaluated three weeks after application
Summary of the method: as §4

[28] = system: lambsquarters; experiment: Test Example 5: herbicidal effect by foliage application, plastic box (Table 20, symbol O); type: in vivo, lambsquarters (Chenopodium album); settings: foliage application, evaluated three weeks after application
Summary of the method: as §4

[29] = system: chickweed; experiment: Test Example 5: herbicidal effect by foliage application, plastic box (Table 20, symbol P); type: in vivo, common chickweed (Stellaria media); settings: foliage application, evaluated three weeks after application
Summary of the method: as §4

[30] = system: persian speedwell; experiment: Test Example 5: herbicidal effect by foliage application, plastic box (Table 20, symbol R); type: in vivo, Persian speedwell (Veronica persica); settings: foliage application, evaluated three weeks after application
Summary of the method: as §4

Structure (SMILES) | Herbicidal effect on A: late watergrass (grade 0-5) [1] | Herbicidal effect on B: Japanese bulrush (grade 0-5) [2] | Herbicidal effect on C: oval-leafed pondweed (grade 0-5) [3] | herbicidal effect on H: barnyard grass [4] | herbicidal effect on D: Chinese sprangletop [5] | herbicidal effect on E: rice flat sedge [6] | herbicidal effect on F: southern crabgrass [7] | herbicidal effect on G: green foxtail [8] | herbicidal effect on H: barnyard grass [9] | herbicidal effect on I: wild oat [10] | herbicidal effect on J: blackgrass [11] | herbicidal effect on K: Italian ryegrass [12] | herbicidal effect on L: windgrass [13] | herbicidal effect on M: velvetleaf [14] | herbicidal effect on N: redroot pigweed [15] | herbicidal effect on O: lambsquarters [16] | herbicidal effect on P: chickweed [17] | herbicidal effect on R: persian speedwell [18] | further results
CCCC(=O)Oc1c(C)nn(C)c(=O)c1-c1c(-c2cccc(C(F)(F)F)c2)sc2ccc(F)cc12 [2-232] | 3 (Herbicidal rate of 40% or more and less than 70%) | 0 (Herbicidal rate of 5% or less (almost no effect)) | 0 (Herbicidal rate of 5% or less (almost no effect)) | 4 (Herbicidal rate of 70% or more and less than 90%) | 5 (Herbicidal rate of 90% or more (almost completely withered)) | 5 (Herbicidal rate of 90% or more (almost completely withered)) | 0 (Herbicidal rate of 5% or less (almost no effect)) | 0 (Herbicidal rate of 5% or less (almost no effect)) | 0 (Herbicidal rate of 5% or less (almost no effect)) | 0 (Herbicidal rate of 5% or less (almost no effect)) | 0 (Herbicidal rate of 5% or less (almost no effect)) | 0 (Herbicidal rate of 5% or less (almost no effect)) | 0 (Herbicidal rate of 5% or less (almost no effect)) | 0 (Herbicidal rate of 5% or less (almost no effect)) | 0 (Herbicidal rate of 5% or less (almost no effect)) | 0 (Herbicidal rate of 5% or less (almost no effect)) | 3 (Herbicidal rate of 40% or more and less than 70%) | 3 (Herbicidal rate of 40% or more and less than 70%) | herbicidal effect on F: southern crabgrass (criteria 0-5) ([19]; 320 g/ha): 0 (Herbicidal rate of 5% or less (almost no effect)); herbicidal effect on G: green foxtail (criteria 0-5) ([20]; 320 g/ha): 0 (Herbicidal rate of 5% or less (almost no effect)); herbicidal effect on H: barnyard grass (criteria 0-5) ([21]; 320 g/ha): 0 (Herbicidal rate of 5% or less (almost no effect)); herbicidal effect on I: wild oat (criteria 0-5) ([22]; 320 g/ha): 0 (Herbicidal rate of 5% or less (almost no effect)); herbicidal effect on J: blackgrass (criteria 0-5) ([23]; 320 g/ha): 0 (Herbicidal rate of 5% or less (almost no effect)); herbicidal effect on K: Italian ryegrass (criteria 0-5) ([24]; 320 g/ha): 0 (Herbicidal rate of 5% or less (almost no effect)); herbicidal effect on L: windgrass (criteria 0-5) ([25]; 320 g/ha): 1 (Herbicidal rate of 5% or more and less than 20%); herbicidal effect on M: velvetleaf (criteria 0-5) ([26]; 320 g/ha): 5 (Herbicidal rate of 90% or more (almost completely withered)); herbicidal effect on N: redroot pigweed (criteria 0-5) ([27]; 320 g/ha): 5 (Herbicidal rate of 90% or more (almost completely withered)); herbicidal effect on O: lambsquarters (criteria 0-5) ([28]; 320 g/ha): 3 (Herbicidal rate of 40% or more and less than 70%); herbicidal effect on P: chickweed (criteria 0-5) ([29]; 320 g/ha): 5 (Herbicidal rate of 90% or more (almost completely withered)); herbicidal effect on R: persian speedwell (criteria 0-5) ([30]; 320 g/ha): 5 (Herbicidal rate of 90% or more (almost completely withered))
Cc1nn(C)c(=O)c(-c2c(-c3ccc([S+](C)[O-])cc3)sc3ccc(F)cc23)c1O (stereo not drawn) [2-256] | 2 (Herbicidal rate of 20% or more and less than 40%) | 0 (Herbicidal rate of 5% or less (almost no effect)) | 0 (Herbicidal rate of 5% or less (almost no effect)) | 5 (Herbicidal rate of 90% or more (almost completely withered)) | 4 (Herbicidal rate of 70% or more and less than 90%) | 4 (Herbicidal rate of 70% or more and less than 90%) | 0 (Herbicidal rate of 5% or less (almost no effect)) | 0 (Herbicidal rate of 5% or less (almost no effect)) | 0 (Herbicidal rate of 5% or less (almost no effect)) | 1 (Herbicidal rate of 5% or more and less than 20%) | 0 (Herbicidal rate of 5% or less (almost no effect)) | 3 (Herbicidal rate of 40% or more and less than 70%) | 0 (Herbicidal rate of 5% or less (almost no effect)) | 0 (Herbicidal rate of 5% or less (almost no effect)) | 3 (Herbicidal rate of 40% or more and less than 70%) | 0 (Herbicidal rate of 5% or less (almost no effect)) | 3 (Herbicidal rate of 40% or more and less than 70%) | 4 (Herbicidal rate of 70% or more and less than 90%) | F: southern crabgrass, herbicidal effect (criteria 0-5) ([19]; AAH 320 g/ha): 4 (Herbicidal rate of 70% or more and less than 90%); G: green foxtail, herbicidal effect (criteria 0-5) ([20]; AAH 320 g/ha): 3 (Herbicidal rate of 40% or more and less than 70%); H: barnyard grass, herbicidal effect (criteria 0-5) ([21]; AAH 320 g/ha): 1 (Herbicidal rate of 5% or more and less than 20%); I: wild oat, herbicidal effect (criteria 0-5) ([22]; AAH 320 g/ha): 5 (Herbicidal rate of 90% or more (almost completely withered)); J: blackgrass, herbicidal effect (criteria 0-5) ([23]; AAH 320 g/ha): 3 (Herbicidal rate of 40% or more and less than 70%); K: Italian ryegrass, herbicidal effect (criteria 0-5) ([24]; AAH 320 g/ha): 5 (Herbicidal rate of 90% or more (almost completely withered)); L: windgrass, herbicidal effect (criteria 0-5) ([25]; AAH 320 g/ha): 5 (Herbicidal rate of 90% or more (almost completely withered)); M: velvetleaf, herbicidal effect (criteria 0-5) ([26]; AAH 320 g/ha): 4 (Herbicidal rate of 70% or more and less than 90%); N: redroot pigweed, herbicidal effect (criteria 0-5) ([27]; AAH 320 g/ha): 5 (Herbicidal rate of 90% or more (almost completely withered)); O: lambsquarters, herbicidal effect (criteria 0-5) ([28]; AAH 320 g/ha): 5 (Herbicidal rate of 90% or more (almost completely withered)); P: chickweed, herbicidal effect (criteria 0-5) ([29]; AAH 320 g/ha): 5 (Herbicidal rate of 90% or more (almost completely withered)); R: persian speedwell, herbicidal effect (criteria 0-5) ([30]; AAH 320 g/ha): 5 (Herbicidal rate of 90% or more (almost completely withered))
